Test results as given in ChEMBL document CHEMBL4387741, “Optimization of novel reversible Bruton's tyrosine kinase inhibitors identified using Tethering-fragment-based screens” (Bioorg Med Chem, 2019).

Assays:
[1] = target: NUAK family SNF1-like kinase 1 (Homo sapiens) (UniProt O60285); assay: Inhibition of wild-type human partial length ARK5 (E25 to I332 residues) expressed in bacterial expression system at 1 uM by Kinomescan method relative to control
[2] = target: Serine/threonine-protein kinase BRSK1 (Homo sapiens) (UniProt Q8TDC3); assay: Inhibition of wild-type human partial length BRSK1 (M1 to E754 residues) expressed in bacterial expression system at 1 uM by Kinomescan method relative to control
[3] = target: Cyclin-dependent kinase-like 1 (Homo sapiens) (UniProt Q00532); assay: Inhibition of wild-type human full length CDKL1 (M1 to I358 residues) expressed in mammalian expression system at 1 uM by Kinomescan method relative to control
[4] = target: Ephrin type-A receptor 2 (Homo sapiens) (UniProt P29317); assay: Inhibition of wild-type human partial length EPHA2 (T593 to V891 residues) expressed in bacterial expression system at 1 uM by Kinomescan method relative to control
Sequence of Ephrin type-A receptor 2 (Homo sapiens) (P29317 whole entry, the tested form may be a part): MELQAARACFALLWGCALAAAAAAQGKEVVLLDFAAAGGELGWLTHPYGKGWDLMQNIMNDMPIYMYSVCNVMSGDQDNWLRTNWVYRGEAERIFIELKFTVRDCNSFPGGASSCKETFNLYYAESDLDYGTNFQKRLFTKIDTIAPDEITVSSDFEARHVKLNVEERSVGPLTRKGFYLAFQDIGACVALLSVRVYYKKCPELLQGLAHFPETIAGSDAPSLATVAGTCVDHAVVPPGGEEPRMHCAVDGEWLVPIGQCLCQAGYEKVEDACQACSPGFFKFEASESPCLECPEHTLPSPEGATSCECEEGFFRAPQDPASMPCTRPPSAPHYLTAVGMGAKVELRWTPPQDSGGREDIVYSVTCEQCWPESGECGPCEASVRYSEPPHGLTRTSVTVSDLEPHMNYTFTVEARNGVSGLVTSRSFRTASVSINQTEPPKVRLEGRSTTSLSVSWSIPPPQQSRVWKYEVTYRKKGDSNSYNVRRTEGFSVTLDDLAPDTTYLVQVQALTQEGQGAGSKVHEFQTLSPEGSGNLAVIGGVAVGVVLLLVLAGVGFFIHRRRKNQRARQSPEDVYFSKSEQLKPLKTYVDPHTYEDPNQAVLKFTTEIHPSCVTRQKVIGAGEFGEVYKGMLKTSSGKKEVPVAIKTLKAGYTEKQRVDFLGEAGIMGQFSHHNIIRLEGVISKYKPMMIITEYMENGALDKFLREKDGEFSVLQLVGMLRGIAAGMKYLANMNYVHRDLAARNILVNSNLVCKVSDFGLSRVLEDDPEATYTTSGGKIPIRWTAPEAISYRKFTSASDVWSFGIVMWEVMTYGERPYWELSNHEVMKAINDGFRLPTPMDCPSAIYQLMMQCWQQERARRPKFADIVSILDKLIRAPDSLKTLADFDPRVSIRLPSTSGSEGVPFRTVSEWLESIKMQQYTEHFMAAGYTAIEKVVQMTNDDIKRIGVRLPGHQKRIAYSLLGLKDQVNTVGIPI

[5] = target: Serine/threonine-protein kinase 10 (Homo sapiens) (UniProt O94804); assay: Inhibition of wild-type human partial length LOK (E16 to V314 residues) expressed in bacterial expression system at 1 uM by Kinomescan method relative to control
[6] = target: Serine/threonine-protein kinase 38-like (Homo sapiens) (UniProt Q9Y2H1); assay: Inhibition of wild-type human partial length NDR2 (N34 to E447 residues) expressed in bacterial expression system at 1 uM by Kinomescan method relative to control
[7] = target: Serine/threonine-protein kinase Nek6 (Homo sapiens) (UniProt Q9HC98); assay: Inhibition of wild-type human full length NEK6 (M8 to T313 residues) expressed in bacterial expression system at 1 uM by Kinomescan method relative to control
Sequence of Serine/threonine-protein kinase Nek6 (Homo sapiens) (Q9HC98 whole entry, the tested form may be a part): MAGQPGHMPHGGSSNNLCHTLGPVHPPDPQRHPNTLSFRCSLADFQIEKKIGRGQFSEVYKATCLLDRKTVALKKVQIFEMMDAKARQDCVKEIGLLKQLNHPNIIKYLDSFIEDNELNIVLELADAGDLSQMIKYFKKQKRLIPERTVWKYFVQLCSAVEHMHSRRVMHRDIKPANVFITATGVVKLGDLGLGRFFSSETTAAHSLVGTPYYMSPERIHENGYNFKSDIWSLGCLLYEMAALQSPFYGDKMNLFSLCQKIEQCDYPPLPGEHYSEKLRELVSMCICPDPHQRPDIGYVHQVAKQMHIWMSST

[8] = target: Calcium-dependent protein kinase 1 (Plasmodium falciparum) (UniProt P62344); assay: Inhibition of wild-type Plasmodium falciparum full length CDPK1 (M1 to S524 residues) expressed in mammalian expression system at 1 uM by Kinomescan method relative to control
Sequence of Calcium-dependent protein kinase 1 (Plasmodium falciparum) (P62344 2-524 limits assumed): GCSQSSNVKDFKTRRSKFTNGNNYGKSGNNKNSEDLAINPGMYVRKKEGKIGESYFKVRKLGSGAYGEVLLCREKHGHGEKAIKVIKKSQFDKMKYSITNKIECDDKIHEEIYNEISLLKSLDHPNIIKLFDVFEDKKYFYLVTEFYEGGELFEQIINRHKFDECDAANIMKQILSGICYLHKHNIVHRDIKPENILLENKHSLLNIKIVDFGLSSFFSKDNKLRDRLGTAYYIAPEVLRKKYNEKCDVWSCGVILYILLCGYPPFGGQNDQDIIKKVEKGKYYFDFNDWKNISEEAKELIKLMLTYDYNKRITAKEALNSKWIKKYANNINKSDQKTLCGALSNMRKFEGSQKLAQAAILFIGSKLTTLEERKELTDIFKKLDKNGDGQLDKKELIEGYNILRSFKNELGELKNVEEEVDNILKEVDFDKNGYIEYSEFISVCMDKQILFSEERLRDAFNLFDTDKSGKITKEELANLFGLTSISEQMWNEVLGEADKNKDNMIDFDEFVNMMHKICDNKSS

[9] = target: Protein kinase C iota type (Homo sapiens) (UniProt P41743); assay: Inhibition of wild-type human partial length PRKCI (H215 to V587 residues) expressed in mammalian expression system at 1 uM by Kinomescan method relative to control
Sequence of Protein kinase C iota type (Homo sapiens) (P41743 whole entry, the tested form may be a part): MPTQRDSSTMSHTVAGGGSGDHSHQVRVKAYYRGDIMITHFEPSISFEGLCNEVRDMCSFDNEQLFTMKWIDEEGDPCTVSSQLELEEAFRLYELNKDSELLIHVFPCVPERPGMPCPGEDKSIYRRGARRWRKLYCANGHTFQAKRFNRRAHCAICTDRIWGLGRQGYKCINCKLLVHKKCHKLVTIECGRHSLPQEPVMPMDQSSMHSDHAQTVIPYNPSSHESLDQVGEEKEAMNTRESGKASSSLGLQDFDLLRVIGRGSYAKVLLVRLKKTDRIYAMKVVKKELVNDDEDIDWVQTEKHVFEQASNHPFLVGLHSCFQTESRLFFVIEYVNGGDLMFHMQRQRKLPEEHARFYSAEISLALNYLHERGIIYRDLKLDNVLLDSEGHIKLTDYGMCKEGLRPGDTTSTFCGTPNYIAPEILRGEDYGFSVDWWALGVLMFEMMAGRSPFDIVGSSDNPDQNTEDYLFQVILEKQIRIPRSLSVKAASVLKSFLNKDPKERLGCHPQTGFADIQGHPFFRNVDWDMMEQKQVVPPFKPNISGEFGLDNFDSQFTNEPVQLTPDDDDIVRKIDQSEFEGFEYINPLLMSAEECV

[10] = test system: Proto-oncogene tyrosine-protein kinase receptor Ret (Homo sapiens), P07949 [V804L]; assay: Inhibition of human partial length RET V804L mutant (E713 to D1014 residues) expressed in bacterial expression system at 1 uM by Kinomescan method relative to control
Sequence of Proto-oncogene tyrosine-protein kinase receptor Ret (Homo sapiens), P07949 [V804L] (P07949 whole entry V804L, the tested form may be a part): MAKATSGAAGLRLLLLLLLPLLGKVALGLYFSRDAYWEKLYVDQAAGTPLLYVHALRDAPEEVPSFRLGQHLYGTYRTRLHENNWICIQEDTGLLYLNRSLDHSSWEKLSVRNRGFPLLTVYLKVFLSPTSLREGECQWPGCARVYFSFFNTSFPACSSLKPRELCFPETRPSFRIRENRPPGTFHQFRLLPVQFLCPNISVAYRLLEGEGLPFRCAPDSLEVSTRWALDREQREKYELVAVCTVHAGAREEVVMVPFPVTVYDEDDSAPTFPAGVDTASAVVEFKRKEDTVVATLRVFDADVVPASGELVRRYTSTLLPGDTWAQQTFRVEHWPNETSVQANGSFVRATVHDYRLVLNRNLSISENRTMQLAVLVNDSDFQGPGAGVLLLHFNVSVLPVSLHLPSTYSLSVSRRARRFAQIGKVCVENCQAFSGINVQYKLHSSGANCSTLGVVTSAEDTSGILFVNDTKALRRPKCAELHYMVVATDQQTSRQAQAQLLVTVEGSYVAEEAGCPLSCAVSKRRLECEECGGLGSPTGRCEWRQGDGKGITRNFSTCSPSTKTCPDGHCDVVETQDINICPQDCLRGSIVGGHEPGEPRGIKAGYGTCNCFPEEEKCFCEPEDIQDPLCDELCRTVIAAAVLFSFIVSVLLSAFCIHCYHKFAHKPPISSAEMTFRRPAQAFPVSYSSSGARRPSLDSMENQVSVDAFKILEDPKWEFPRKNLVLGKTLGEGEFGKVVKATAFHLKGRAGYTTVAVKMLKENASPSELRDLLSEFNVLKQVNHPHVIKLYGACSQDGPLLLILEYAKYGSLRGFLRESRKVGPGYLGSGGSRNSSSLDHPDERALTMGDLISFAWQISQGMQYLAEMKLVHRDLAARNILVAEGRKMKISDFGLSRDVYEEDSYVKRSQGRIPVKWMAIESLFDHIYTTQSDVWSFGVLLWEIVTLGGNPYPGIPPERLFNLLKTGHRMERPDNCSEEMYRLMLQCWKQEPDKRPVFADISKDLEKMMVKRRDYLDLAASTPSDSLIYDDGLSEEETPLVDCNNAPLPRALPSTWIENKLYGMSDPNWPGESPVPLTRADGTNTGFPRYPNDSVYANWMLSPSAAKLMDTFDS

[11] = target: Dual serine/threonine and tyrosine protein kinase (Homo sapiens) (UniProt Q6XUX3); assay: Inhibition of wild-type human full length RIPK5 (M1 to T929 residues) expressed in mammalian expression system at 1 uM by Kinomescan method relative to control
[12] = target: Ribosomal protein S6 kinase alpha-2 (Homo sapiens) (UniProt Q15349); assay: Inhibition of wild-type human partial length N-terminal RSK3 kinase domain 1 (M1 to Q385 residues) expressed in bacterial expression system at 1 uM by Kinomescan method relative to control
[13] = target: Serine/threonine-protein kinase 35 (Homo sapiens) (UniProt Q8TDR2); assay: Inhibition of wild-type human partial length STK35 (G182 to A534 residues) expressed in bacterial expression system at 1 uM by Kinomescan method relative to control
[14] = target: Serine/threonine-protein kinase TAO3 (Homo sapiens) (UniProt Q9H2K8); assay: Inhibition of wild-type human partial length TAOK3 (M1 to T316 residues) expressed in mammalian expression system at 1 uM by Kinomescan method relative to control
[15] = target: Serine/threonine-protein kinase ULK1 (Homo sapiens) (UniProt O75385); assay: Inhibition of wild-type human partial length ULK1 (M1 to T309 residues) expressed in mammalian expression system at 1 uM by Kinomescan method relative to control
[16] = target: RAC-gamma serine/threonine-protein kinase (Homo sapiens) (UniProt Q9Y243); assay: Inhibition of wild-type human partial length AKT3 expressed in bacterial expression system at 10 uM by Kinomescan method relative to control
[17] = target: Mitotic checkpoint serine/threonine-protein kinase BUB1 (Homo sapiens) (UniProt O43683); assay: Inhibition of wild-type human partial length BUB1 (Q724 to K1085 residues) expressed in mammalian expression system at 10 uM by Kinomescan method relative to control
Sequence of Mitotic checkpoint serine/threonine-protein kinase BUB1 (Homo sapiens) (O43683 whole entry, looked up, the tested form may be a part): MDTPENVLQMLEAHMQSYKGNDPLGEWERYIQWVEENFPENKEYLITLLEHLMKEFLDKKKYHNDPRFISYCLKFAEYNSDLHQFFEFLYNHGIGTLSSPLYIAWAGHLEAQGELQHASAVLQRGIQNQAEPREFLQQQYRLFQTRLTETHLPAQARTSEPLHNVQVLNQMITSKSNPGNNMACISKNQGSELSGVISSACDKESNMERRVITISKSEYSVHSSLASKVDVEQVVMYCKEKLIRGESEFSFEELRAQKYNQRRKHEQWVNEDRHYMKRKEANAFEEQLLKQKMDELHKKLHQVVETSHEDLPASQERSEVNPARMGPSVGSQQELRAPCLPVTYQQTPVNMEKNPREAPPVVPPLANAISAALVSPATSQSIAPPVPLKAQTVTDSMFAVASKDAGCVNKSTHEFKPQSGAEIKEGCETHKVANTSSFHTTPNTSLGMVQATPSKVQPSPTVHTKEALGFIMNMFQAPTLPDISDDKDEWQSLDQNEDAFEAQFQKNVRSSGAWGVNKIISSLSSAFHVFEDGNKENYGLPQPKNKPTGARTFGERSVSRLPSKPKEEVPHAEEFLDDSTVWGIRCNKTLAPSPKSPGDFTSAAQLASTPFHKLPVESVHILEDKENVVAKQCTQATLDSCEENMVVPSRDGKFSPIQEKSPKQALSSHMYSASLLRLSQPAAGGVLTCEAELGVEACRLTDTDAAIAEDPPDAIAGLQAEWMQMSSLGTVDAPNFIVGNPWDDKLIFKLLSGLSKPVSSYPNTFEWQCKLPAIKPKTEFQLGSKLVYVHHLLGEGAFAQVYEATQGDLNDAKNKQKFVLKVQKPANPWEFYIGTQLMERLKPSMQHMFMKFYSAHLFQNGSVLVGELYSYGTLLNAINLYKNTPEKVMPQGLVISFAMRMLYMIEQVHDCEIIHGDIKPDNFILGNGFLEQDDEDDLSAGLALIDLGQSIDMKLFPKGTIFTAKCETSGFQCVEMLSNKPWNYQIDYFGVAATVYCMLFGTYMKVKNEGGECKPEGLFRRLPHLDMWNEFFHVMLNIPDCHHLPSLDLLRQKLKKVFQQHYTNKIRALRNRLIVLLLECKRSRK

[18] = target: Cyclin-dependent kinase-like 5 (Homo sapiens) (UniProt O76039); assay: Inhibition of wild-type human partial length CDKL5 (M1 to S337 residues) expressed in mammalian expression system at 10 uM by Kinomescan method relative to control
[19] = target: Homeodomain-interacting protein kinase 2 (Homo sapiens) (UniProt Q9H2X6); assay: Inhibition of wild-type human partial length HIPK2 (M153 to S564 residues) expressed in mammalian expression system at 10 uM by Kinomescan method relative to control
[20] = target: Inhibitor of nuclear factor kappa-B kinase subunit epsilon (Homo sapiens) (UniProt Q14164); assay: Inhibition of wild-type human full length IKK-epsilon (M1 to V716 residues) expressed in mammalian expression system at 10 uM by Kinomescan method relative to control
[21] = target: Interleukin-1 receptor-associated kinase 3 (Homo sapiens) (UniProt Q9Y616); assay: Inhibition of wild-type human partial length IRAK3 (V147 to E596 residues) expressed in bacterial expression system at 10 uM by Kinomescan method relative to control
[22] = target: Mitogen-activated protein kinase 10 (Homo sapiens) (UniProt P53779); assay: Inhibition of wild-type human partial length JNK3 (V28 to Q422 residues) expressed in mammalian expression system at 10 uM by Kinomescan method relative to control
Sequence of Mitogen-activated protein kinase 10 (Homo sapiens) (P53779 whole entry, the tested form may be a part): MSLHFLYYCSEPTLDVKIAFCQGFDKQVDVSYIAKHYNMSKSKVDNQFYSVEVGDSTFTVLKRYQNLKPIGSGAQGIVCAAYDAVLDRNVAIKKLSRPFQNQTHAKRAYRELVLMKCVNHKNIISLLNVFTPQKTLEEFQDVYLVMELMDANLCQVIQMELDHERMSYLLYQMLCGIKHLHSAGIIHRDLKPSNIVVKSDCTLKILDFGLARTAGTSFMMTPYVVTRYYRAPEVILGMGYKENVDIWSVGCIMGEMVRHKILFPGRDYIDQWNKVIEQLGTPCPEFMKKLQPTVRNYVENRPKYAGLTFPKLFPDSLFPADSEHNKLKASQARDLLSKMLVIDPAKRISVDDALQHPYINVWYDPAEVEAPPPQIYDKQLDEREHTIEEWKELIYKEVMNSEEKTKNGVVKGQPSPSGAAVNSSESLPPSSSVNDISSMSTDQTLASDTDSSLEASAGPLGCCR

[23] = test system: Mast/stem cell growth factor receptor Kit (Homo sapiens), P10721 [V559D]; assay: Inhibition of human partial length KIT V559D mutant (Y545 to D952 residues) expressed in bacterial expression system at 10 uM by Kinomescan method relative to control
[24] = target: Serine/threonine-protein kinase MARK2 (Homo sapiens) (UniProt Q7KZI7); assay: Inhibition of wild-type human partial length MARK2 (M1 to R450 residues) expressed in bacterial expression system at 10 uM by Kinomescan method relative to control
[25] = target: Mitogen-activated protein kinase 12 (Homo sapiens) (UniProt P53778); assay: Inhibition of wild-type human full length p38-gamma (M1 to L367 residues) expressed in mammalian expression system at 10 uM by Kinomescan method relative to control
[26] = target: Serine/threonine-protein kinase PknB (Mycobacterium tuberculosis) (UniProt P9WI81); assay: Inhibition of wild-type Mycobacterium tuberculosis partial length PKNB (M1 to G279 residues) expressed in mammalian expression system at 10 uM by Kinomescan method relative to control
[27] = target: cGMP-dependent protein kinase 2 (Homo sapiens) (UniProt Q13237); assay: Inhibition of wild-type human partial length PRKG2 (S422 to F762 residues) expressed in mammalian expression system at 10 uM by Kinomescan method relative to control

With `O=C(Nc1cccc([C@@H]2CN(c3ncnc4[nH]ccc34)CCN2CCO)c1)Nc1c(F)cccc1N1CCCC1` the inhibition [1] was 45%, the inhibition [2] was 100% and the inhibition [3] was 73%. It also gave an inhibition [4] of 98%, an inhibition [5] of 11% and an inhibition [6] of 100%. For the same molecule, the inhibition [7] was 86%, the inhibition [8] was 71% and the inhibition [9] was 54%. The inhibition [10] was 0.2%, the inhibition [11] was 74% and the inhibition [12] was 88%. The inhibition [13] was 100%, the inhibition [14] was 88% and the inhibition [15] was 60%.
For `O=C(Nc1cccc([C@H]2CCCN(c3ncnc4[nH]ccc34)C2)c1)Nc1ccccc1N1CCCC1`, the inhibition [16] was 100%, the inhibition [17] was 55% and the inhibition [18] was 96%. For the same molecule, the inhibition [19] was 64%, the inhibition [20] was 67% and the inhibition [21] was 92%. It also gave an inhibition [22] of 64%, an inhibition [23] of 0.15% and an inhibition [24] of 41%. It also gave an inhibition [25] of 68%, an inhibition [26] of 29% and an inhibition [27] of 54%.
